Read-outs that look alike come from different tables or passages of the source.
Legend:
786-O = assay: Cytotoxicity assay (MTS/MTT), 786-O cells; type: cell-based, human
Description: (§1) Cytotoxicity Assay (MTS Assay)
786-O: human kidney cancer cell strains
(§2) Cells were inoculated in RPMI 1640 cell culture solution with 10% fetal bovine serum (supplemented with 100 ku/L of penicillin, streptomycin, respectively). The petri dishes were left in a cell incubator containing 5% CO2 under the temperature of 37° C. The medium was changed every 2-3 days, and was digested with 0.25% trypsin solution. The cells were subcultured and collected.
(§3) The cells in the exponential phase were formulated into cell suspensions with desired concentrations using RPMI 1640 cell culture solutions containing 10% fetal bovine serum. The suspensions were added into 96-well cell culture plates according to 3,000-5,000 cells per well (100 μl). After being cultured for 24 hr, 100 μl of assay compounds having different concentrations were added into each well. Four parallel tests were conducted for each well. The supernatants were discarded after being cultured for 72-120 hr. 100 μl of 0.5 mg/ml MTT fresh serum-free culture solutions were added into each well. The resultant supernatants were discarded after being cultured for 4 hr at 37° C. Formazan was dissolved with 200 μl DMSO. The resulting mixture was gently shaken for 15 min. Optical absorption values (OD-values) at 570 nm of detection wavelength and 450 nm of reference wavelength were measured with ELISA reader.
(§4) The data were represented by x±s. […]

U937 Cells = assay: Cytotoxicity assay (MTS/MTT), U937 cells; type: cell-based, human; conditions: for IC50: U937 Cells, read-out: Inhibitory Concentration 50 for Cell Growth (IC50)
Description: as §1
U937: human lymphoma cell strains
as §2, §3
(§5) The data were represented by x±s. Inhibition Ratio=(OD values in control groups−OD values in administration groups)/OD values in control groups×100%. Anti-cancer effects were represented by maximum inhibition ratio Imax and inhibitory concentration 50 (IC50). Drawings were obtained with software MicroCal Origin. Inhibition curves of assay compounds for inhibiting the growth of tumor cells were fitted by the four-parameter program Logistic in the software so as to give the inhibitory concentration 50 (IC50:μg/ml) for inhibiting the proliferation of tumor cells.
The exposure concentrations of the assay compounds were 0.001 μg/ml, 0.003 μg/ml, 0.009 μg/ml, 0.027 μg/ml, 0.082 μg/ml, 0.247 μg/ml, 0.741 μg/ml, 2.222 μg/ml, 6.667 μg/ml and 20 μg/ml. […]

NCI H460 = assay: Cytotoxicity assay (MTS/MTT), NCI-H460 cells; type: cell-based, human; conditions: read-out: Inhibitory Concentration 50 for Cell Growth (IC50)
Description: NCI-H460: human lung cancer cell strains

Kunming mice = assay: Maximum tolerated dose (MTD) in vivo of mice
Description: Assays on Maximum Tolerated Dose (MTD) In Vivo of Mice
(1) Assay animals: 9 Kunming Mice, of which five were male and four were female, with a weight of 20-22 g (purchased from Lab Animals Center of Chinese Academy of Medical Sciences, License No. scxk (jin) 2005-0001)
(2) Assay medicine: compound in Example 1
Kunming mice were 9, of which 5 were male and 4 were female. Each mouse was administered the compound in Example 1 (20 mg/kg, iv) with a dose volume of 20 ml/kg.
The process for preparing a solution of the compound in Example 1: 4.53 mg of the compound in Example 1 was weighed and dissolved by adding 40 μL of DMSO (dimethylsulfoxide). 340 μL of RH40 (polyoxyethylene castor oil) were added. After mixing homogeneously, 4.156 mL of physiological saline was added to the mixture. After mixing homogeneously, the mixture was filtered with 0.45 μm filter membrane to give a 1 mg/ml solution of the compound in Example 1.
Observation time: 14 days
Observation indicators: weight, appearance, breath, action, reflection, defecation

THP-1 = assay: Cytotoxicity assay (MTS/MTT), THP-1 cells; type: cell-based, human; conditions: read-out: Inhibitory Concentration 50 for Cell Growth (IC50)
Description: THP-1: human leukemia cell strains

PC-3 Cells = assay: Cytotoxicity assay (MTS/MTT), PC-3 cells; type: cell-based, human; conditions: for IC50: PC-3 Cells, read-out: Inhibitory Concentration 50 for Cell Growth (IC50)
Description: as §1
PC-3: human prostate cancer cell strains
as §2, §3
The data were represented by x±s. Inhibition Ratio=(OD values in control groups−OD values in administration groups)/OD values in control groups×100%. Anti-cancer effects were represented by maximum inhibition ratio Imax and inhibitory concentration 50 (IC50). Drawings were obtained with software MicroCal Origin. Inhibition curves of assay compounds for inhibiting the growth of tumor cells were fitted by the four-parameter program Logistic in the software so as to give the inhibitory concentration 50 (IC50:μg/ml) for inhibiting the proliferation of tumor cells. […]

DU-145 = assay: Cytotoxicity assay (MTS/MTT), DU-145 cells; type: cell-based, human; conditions: read-out: Inhibitory Concentration 50 for Cell Growth (IC50)
Description: as §1
DU-145: human prostate cancer cell strains
as §2, §3, §4

A431 Cells = assay: Cytotoxicity assay (MTS/MTT), A431 cells; type: cell-based, human
Description: A431: epidermoid cell strains

K562 = assay: Cytotoxicity assay (MTS/MTT), K562 cells; type: cell-based, human
Description: as §1
K562: human leukemia cell strain
as §2, §3, §4

HL-60 cells = assay: Cytotoxicity assay (MTS/MTT), HL-60 cells; type: cell-based, human; conditions: for Inhibition Ratio (%): HL-60 cells, concentration of 1 μM
Description: as §1
HL-60: human leukemia cell strains
as §2, §3, §5
The exposure concentrations of the assay compounds were 0.001 μg/ml, 0.003 μg/ml, 0.009 μg/ml, 0.027 μg/ml, 0.082 μg/ml, 0.247 μg/ml, 0.741 μg/ml, 2.222 μg/ml, 6.667 μg/ml and 20 μg/ml. The exposure concentrations of adriamycin (as positive drugs) were 1.25 μg/ml, 5 μg/ml and 20 μg/ml. In 96-well plates, 3,000-5,000 cells were inoculated in each well. Four parallel assays were conducted for each concentration.

A549 = assay: Cytotoxicity assay (MTS/MTT), A549 cells; type: cell-based, human
Description: as §1
A549: human lung cancer cell strains
as §2, §3, §4

Hep G2 = assay: Cytotoxicity assay (MTS/MTT), Hep G2 cells; type: cell-based, human; conditions: read-out: Inhibitory Concentration 50 for Cell Growth (IC50)
Description: as §1
HePG-2: human liver cancer cell strains
as §2, §3, §4

NCI H446 = assay: Cytotoxicity assay (MTS/MTT), NCI-H446 cells; type: cell-based, human; conditions: read-out: Inhibitory Concentration 50 for Cell Growth (IC50)
Description: as §1
NCI-H446: human lung cancer cell strains
as §2, §3, §4

[1] = 20 mg/kg via tail vein, observed for 14 days
[2] = single intravenous injection 20 mg/kg, 9 mice, 14 days observation

COc1cccc2c1C(=O)c1c(O)c3c(c(O)c1C2=O)C[C@@](O)(C(=O)CO)C[C@@H]3O[C@H]1C[C@H](n2cccc2)[C@@H](O)[C@H](C)O1 [Example 1, 3′-pyrrolyl epirubicin]
IC50 (786-O; 786-O, read-out: Inhibitory Concentration 50 for Cell Growth (IC50)): 74 nM
Effect on growth of tumor cell strain (786-O; kidney cancer 786-0): strong inhibitory effects
IC50 (U937 Cells): 12 nM
Effect on growth of tumor cell strain (U937 Cells; lymphoma U937): strong inhibitory effects
IC50 (NCI H460): 14 nM
Findings on dissection at the end of the test (Kunming mice; 20 mg/kg via tail vein, dissected after 14 days): no abnormal phenomena were observed
Change on the weights of the mice (Kunming mice; [1]): no significant change on the weights
Death of mice (Kunming mice; [1]): no animal died
Other indicators (appearance, breath, action, reflection, defecation) (Kunming mice; [1]): not obviously abnormal
Death Number (Kunming mice; [2]): 0
Mortality Rate (%) (Kunming mice; [2]): 0%
Average Weight (g) of Mice (Kunming mice; single intravenous injection 20 mg/kg, Day 1): 20.9 g
Average Weight (g) of Mice (Kunming mice; single intravenous injection 20 mg/kg, Day 2): 20.2 g
Average Weight (g) of Mice (Kunming mice; single intravenous injection 20 mg/kg, Day 3): 20.4 g
Average Weight (g) of Mice (Kunming mice; single intravenous injection 20 mg/kg, Day 5): 19.7 g
Average Weight (g) of Mice (Kunming mice; single intravenous injection 20 mg/kg, Day 6): 20.2 g
Average Weight (g) of Mice (Kunming mice; single intravenous injection 20 mg/kg, Day 7): 19.8 g
Average Weight (g) of Mice (Kunming mice; single intravenous injection 20 mg/kg, Day 8): 20.0 g
Average Weight (g) of Mice (Kunming mice; single intravenous injection 20 mg/kg, Day 9): 20.1 g
Average Weight (g) of Mice (Kunming mice; single intravenous injection 20 mg/kg, Day 10): 20.5 g
Average Weight (g) of Mice (Kunming mice; single intravenous injection 20 mg/kg, Day 11): 20.4 g
Average Weight (g) of Mice (Kunming mice; single intravenous injection 20 mg/kg, Day 12): 20.4 g
Average Weight (g) of Mice (Kunming mice; single intravenous injection 20 mg/kg, Day 13): 20.8 g
Average Weight (g) of Mice (Kunming mice; single intravenous injection 20 mg/kg, Day 14): 21.1 g
IC50 (THP-1): 9 nM
IC50 (PC-3 Cells): 10 nM
Effect on growth of tumor cell strain (PC-3 Cells; human prostate cancer PC-3): strong inhibitory effects
IC50 (DU-145): 8.6 nM
IC50 (A431 Cells; read-out: Inhibitory Concentration 50 for Cell Growth (IC50)): 6.3 nM
IC50 (K562; K562, read-out: Inhibitory Concentration 50 for Cell Growth (IC50)): 44 nM
Effect on growth of tumor cell strain (K562; human leukemia K562): strong inhibitory effects
IC50 (HL-60 cells; HL-60, read-out: Inhibitory Concentration 50 for Cell Growth (IC50)): 357 nM
Inhibition Ratio (%) (HL-60 cells): 80%
IC50 (A549; A549, read-out: Inhibitory Concentration 50 for Cell Growth (IC50)): 206 nM
Effect on growth of tumor cell strain (A549; lung cancer A549): strong inhibitory effects
IC50 (Hep G2): 27 nM
IC50 (NCI H446): 160 nM

COc1cccc2c1C(=O)c1c(O)c3c(c(O)c1C2=O)C[C@@](O)(C(=O)CO)C[C@@H]3O[C@H]1C[C@H](N)[C@@H](O)[C@H](C)O1 [Epirubicin]
IC50 (U937 Cells; Homo sapiens, U-937): 10 nM
IC50 (NCI H460; Homo sapiens): 25 nM
IC50 (THP-1; Homo sapiens): 67 nM
IC50 (PC-3 Cells; Homo sapiens): 110 nM
IC50 (A431 Cells; Homo sapiens, A-431, read-out: Inhibitory Concentration 50 for Cell Growth (IC50)): 18 nM

COc1cccc2c1C(=O)c1c(O)c3c(c(O)c1C2=O)C[C@@](O)(C(=O)CO)C[C@@H]3O[C@H]1C[C@H](N2C(=O)c3ccccc3C2=O)[C@@H](O)[C@H](C)O1 [Example 8, 3′-(benzo-(2,3)succinimidyl)epirubicin]
Inhibition Ratio (%) (HL-60 cells): 71%

COc1cccc2c1C(=O)c1c(O)c3c(c(O)c1C2=O)CC(O)(C(=O)CO)CC3OC1CC(N2C(=O)CCCC2=O)C(O)C(C)O1 (centres unmarked) [Example 5, 3′-glutarimido epirubicin]
Inhibition Ratio (%) (HL-60 cells): 35%

COc1cccc2c1C(=O)c1c(O)c3c(c(O)c1C2=O)C[C@@](O)(C(=O)CO)C[C@@H]3O[C@H]1C[C@H](N2C(=O)c3cccnc3C2=O)[C@@H](O)[C@H](C)O1 [Example 7, 3′-(pyridino-(2,3)succinimidyl)epirubicin]
Inhibition Ratio (%) (HL-60 cells): 10%

COc1cccc2c1C(=O)c1c(O)c3c(c(O)c1C2=O)CC(O)(C(=O)CO)CC3OC1CC(N2C(=O)CCC2=O)C(O)C(C)O1 (centres unmarked) [Example 4, 3′-succinimidyl epirubicin]
Inhibition Ratio (%) (HL-60 cells): 62%

COc1cccc2c1C(=O)c1c(O)c3c(c(O)c1C2=O)C[C@@](O)(C(=O)CO)C[C@@H]3O[C@H]1C[C@H](N2C(=O)C=CC2=O)[C@@H](O)[C@H](C)O1 [Example 6, 3′-maleimidyl epirubicin]
Inhibition Ratio (%) (HL-60 cells): 43%

— US8877720B2, “Epirubicin derivatives” (Tianjin Hemay Bio-Tech Co., Ltd., priority 2009, dated 2014)
